Data: patent US20200255436A1, “CORTICOTROPIN RELEASING FACTOR RECEPTOR ANTAGONISTS” (Spruce Biosciences, Inc., priority 2019, published 2020)
Values after ≈ are worked out from the molar mass of the structure shown.

Experiments:
CRF1 receptor = biological target: T1, CRF1 receptor (Homo sapiens, UniProt P34998); experiment: Phase 2 study in adults with classic CAH: ACTH, 17-OHP, androstenedione response; type: in vivo; settings: patients with classic CAH
T1 construct: from tissue; host or cells: Human patients in vivo (anterior pituitary corticotrophs)
T1 sequence (P34998 24-415): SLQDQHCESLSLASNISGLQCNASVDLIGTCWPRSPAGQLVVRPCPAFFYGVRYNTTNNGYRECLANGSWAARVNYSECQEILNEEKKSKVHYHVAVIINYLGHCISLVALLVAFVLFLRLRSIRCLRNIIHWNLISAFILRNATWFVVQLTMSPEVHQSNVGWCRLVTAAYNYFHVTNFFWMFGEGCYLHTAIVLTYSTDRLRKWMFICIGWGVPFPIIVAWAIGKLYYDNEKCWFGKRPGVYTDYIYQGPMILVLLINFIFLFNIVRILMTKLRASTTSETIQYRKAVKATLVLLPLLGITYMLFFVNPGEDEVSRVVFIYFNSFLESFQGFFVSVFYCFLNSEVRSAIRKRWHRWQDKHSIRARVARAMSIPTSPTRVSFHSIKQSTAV
Description: (§1) Cohort A of the Phase 2 Study includes a 6-week, multiple-dose, dose escalation study of Compound 1 for the treatment of adults with classic CAH. After screening, eligible patients will be enrolled into a 6-week treatment period followed by a 4-week washout/safety follow-up period.
(§2) This cohort will be conducted in approximately 9 patients, who will receive Compound 1 daily for up to 6 weeks. Compound 1 will be administered as an oral daily dose. Patients will undergo titration of Compound 1 through three escalating dosage strengths at 2-week intervals. Patients will have overnight PK/PD assessments performed at baseline, which include an pre-dose overnight assessment and a post-dose overnight assessment for PK/PD following administration of the first dose. At the end of each 2-week dosing period, patients will return for single overnight visits for steady-state PK/PD assessments. A follow-up outpatient visit will occur 30 days after their last dose. Upon completion of the initial cohort (Cohort A), the study will proceed to a multiple ascending dose (MAD) design with up to 3 sequential cohorts (Cohorts B, C, and D) to further evaluate the safety, PK, and PD of various SPROO1 dosing regimens and to identify an optimal dose regimen. Each cohort will undergo a 2-week run-in period, a 2-week treatment period, and a 30-day washout and safety follow-up period. During the run-in period, which will occur during screening, subjects will document in a paper diary each dose of glucocorticoid medication taken, the time of each meal, and the time they went to bed and woke up each day, to ensure compliance with background glucocorticoid regimens and the stability of their daily routine.
• 1. To evaluate the safety of Compound 1 in subjects with CAH. • 2. To assess the efficacy of Compound 1 in subjects with classic CAH as measured by percent and absolute change in 17-OHP compared to baseline.
• 3. To explore the dose(s) of Compound 1 that cause pharmacodynamics changes in plasma concentrations of ACTH, androstenedione, and testosterone, as measured by the absolute and percent change from baseline by dose. • 4. To determine pharmacokinetics of Compound 1 in subjects with CAH. • 5. To explore potential relationships between pharmacodynamics and pharmacokinetics.

[1] = Phase 2 study in adults with classic CAH: safety; type: in vivo, human; settings: patients with CAH, 5-fold range of doses
Description: as §1
as §2, with “Each cohort will undergo a 2-week run-in period, a 2-week treatment period, and a 30-day washout and safety follow-up period. During the run-in period, which will occur during screening, subjects will document in a paper diary each dose of glucocorticoid medication taken, the time of each meal, and the time they went to bed and woke up each day, to ensure compliance with background glucocorticoid regimens and the stability of their daily routine.” left out
• 1. […] To assess the efficacy of Compound 1 in subjects with classic CAH as measured by percent and absolute change in 17-OHP compared to baseline.

[2] = Solubility in different aqueous media; type: physicochemical; settings: for solubility at 24 h: thermodynamic from solid

Compound: CCC(CC)c1cc(C)nc2c(-c3sc(N4CCOCC4)nc3Cl)c(C)nn12 [Compound 1, 4-(4-chloro-5-(2,5-dimethyl-7-(pentan-3-yl)pyrazolo[1,5-a]pyrimidin-3-yl)thiazol-2-yl)morpholine]
- effect on morning rise in A4 (androstenedione) (CRF1 receptor): attenuates morning rise in A4
- subjects with 17-OHP within the guideline range (1200 ng/dL) after treatment (CRF1 receptor): 50%
- subjects with ACTH in the normal range after treatment (CRF1 receptor): 40%
- subjects with Androstenedione within normal reference range after treatment (CRF1 receptor): 50%
- subjects with more than 25% reduction in 17-OHP (CRF1 receptor): 50%
- subjects with more than 25% reduction in ACTH (CRF1 receptor): 70%
- subjects with more than 25% reduction in Androstenedione (CRF1 receptor): 60%
- subjects with reduction in 17-OHP (CRF1 receptor): 80%
- subjects with reduction in ACTH (CRF1 receptor): 80%
- subjects with reduction in Androstenedione (CRF1 receptor; at various doses): 100%
- tolerability [1]: generally well-tolerated
- Description (solubility) ([2]; 0.001N HCl, equilibrium pH 3.36): Insoluble
- Description (solubility) ([2]; 0.01N HCl, equilibrium pH 2.06): Insoluble
- Description (solubility) ([2]; 0.1N HCl, equilibrium pH 1.06): insoluble
- Description (solubility) ([2]; 0.1N NaOH, equilibrium pH 11.65): Insoluble
- Description (solubility) ([2]; FaSSIF, equilibrium pH 5.16): insoluble
- Description (solubility) ([2]; FaSSIF, equilibrium pH 6.73): Insoluble
- Description (solubility) ([2]; SGF, equilibrium pH 2.25): Insoluble
- Description (solubility) ([2]; Water, equilibrium pH 7.78): insoluble
- solubility at 24 h ([2]; aqueous buffer, 0.001N HCl, equilibrium pH 3.36, 24 hours at room temperature): 0.3 µg/mL (≈ 0.714 µM)
- solubility at 24 h ([2]; aqueous buffer, 0.1N NaOH, equilibrium pH 11.65, 24 hours at room temperature): 0.2 µg/mL (≈ 0.476 µM)
- Description (solubility) ([2]; pH 4.5 Acetate (USP), equilibrium pH 4.65): Insoluble
- solubility at 24 h ([2]; pH 4.5 acetate buffer (USP), aqueous buffer, pH 4.5 Acetate (USP), equilibrium pH 4.65, 24 hours at room temperature): 0.5 µg/mL (≈ 1.19 µM)
- Description (solubility) ([2]; pH 6.0 Phosphate (USP), equilibrium pH 6.08): Insoluble
- solubility at 24 h ([2]; pH 6.0 phosphate buffer (USP), aqueous buffer, pH 6.0 Phosphate (USP), equilibrium pH 6.08, 24 hours at room temperature): 0.2 µg/mL (≈ 0.476 µM)
- Description (solubility) ([2]; pH 7.5 Phosphate (USP), equilibrium pH 7.57): Insoluble
- solubility at 24 h ([2]; pH 7.5 phosphate buffer (USP), aqueous buffer, pH 7.5 Phosphate (USP), equilibrium pH 7.57, 24 hours at room temperature): 0.6 µg/mL (≈ 1.43 µM)
- solubility at 24 h ([2]; simulated gastric fluid, 0.01N HCl, equilibrium pH 2.06, 24 hours at room temperature): 0.4 µg/mL (≈ 0.952 µM)
- solubility at 24 h ([2]; simulated gastric fluid, 0.1N HCl, equilibrium pH 1.06, 24 hours at room temperature): 1.8 µg/mL (≈ 4.29 µM)
- solubility at 24 h ([2]; simulated gastric fluid, SGF, equilibrium pH 2.25, 24 hours at room temperature): 20.4 µg/mL (≈ 48.6 µM)
- solubility at 24 h ([2]; FaSSIF, equilibrium pH 5.16, 24 hours at room temperature): 10.4 µg/mL (≈ 24.8 µM)
- solubility at 24 h ([2]; FaSSIF, equilibrium pH 6.73, 24 hours at room temperature): 3.6 µg/mL (≈ 8.57 µM)
- solubility at 24 h ([2]; Water, equilibrium pH 7.78, 24 hours at room temperature, n = 2): 0.3 µg/mL (≈ 0.714 µM)
